Target: human IDO1 (Homo sapiens, UniProt P14902)
Experiment: Assessment of human IDO-1 inhibitory activity in Hela cells (Interferon-gamma stimulated HeLa cells, Ehrlich reagent, absorbance 490 nm)
Type: cell-based
Design: endogenous in cells; host or cells: HeLa cells stimulated with interferon-gamma
Conditions: Hela Human IDO-1 cellular assay
How it was run: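 IDO activity induced by 18 h IFN-γ (human 10 ng/ml or murine 5 ng/ml, final) after 1 h compound pre-treatment of HeLa cells at 37 °C. Supernatant kynurenine detected via Ehrlich reagent absorbance at 490 nm following 3% TCA at 50 °C; IC50 set against no-IFN-γ and untreated-stimulated controls.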

human IDO1, sequence (P14902 whole entry): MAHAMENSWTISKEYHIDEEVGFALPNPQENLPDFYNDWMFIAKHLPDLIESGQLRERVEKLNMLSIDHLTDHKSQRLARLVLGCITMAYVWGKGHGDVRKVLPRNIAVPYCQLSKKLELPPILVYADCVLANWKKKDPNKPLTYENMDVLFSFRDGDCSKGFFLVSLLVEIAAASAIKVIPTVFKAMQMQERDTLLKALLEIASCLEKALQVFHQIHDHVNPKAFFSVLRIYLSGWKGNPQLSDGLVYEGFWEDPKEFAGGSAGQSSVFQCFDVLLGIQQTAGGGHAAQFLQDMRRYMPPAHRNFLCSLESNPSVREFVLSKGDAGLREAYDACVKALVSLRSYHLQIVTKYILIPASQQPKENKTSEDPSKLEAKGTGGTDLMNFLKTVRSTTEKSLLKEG

SMILES | IC50
CCCN(c1ccc(C(C)(C)CC(=O)O)cc1Nc1cnc(OC)nc1)C1CCS(=O)(=O)CC1 [Example 189, 3-(4-((1,1-dioxidotetrahydro-2H-thiopyran-4-yl)(propyl)amino)-3-((2-methoxypyrimidin-5-yl)amino)phenyl)-3-methylbutanoic acid] | > 0.05 µM
CCN(c1ccc(C(CC)(CC)CC(=O)O)cc1Nc1ccc(Cl)cc1)C1CCOCC1 [Example 26, 3-(3-((4-Chlorophenyl)amino)-4-(ethyl(tetrahydro-2H-pyran-4-yl)amino)phenyl)-3-ethylpentanoic acid] | < 0.005 µM
CCCN(c1ccc(C(C)(C)CC(=O)O)cc1Nc1ccc(C#N)cc1)C1CCOCC1 [Example 22, 3-(3-((4-cyanophenyl)amino)-4-(propyl(tetrahydro-2H-pyran-4-yl)amino)phenyl)-3-methylbutanoic acid] | < 0.005 µM
CCCN(c1ccc(C(COC)CC(=O)O)cc1Nc1ccc(Cl)cc1)C1CCS(=O)(=O)CC1 (single isomer, unassigned) [Example 183, 3-(3-((4-chlorophenyl)amino)-4-((1,1-dioxidotetrahydro-2H-thiopyran-4-yl)(propyl)amino)phenyl)-4-methoxybutanoic acid] | < 0.05 µM
CCCN(c1ccc(C(C)(C)CC(=O)O)cc1Nc1ccc(C#N)cc1)C1CCS(=O)(=O)CC1 [Example 187, 3-(3-((4-Cyanophenyl)amino)-4-((1,1-dioxidotetrahydro-2H-thiopyran-4-yl)(propyl)amino)phenyl)-3-methylbutanoic acid] | < 0.05 µM
CCN(c1ccc(C2(CC(=O)O)CCOCC2)cc1Nc1ccc(OC)nc1)C1CCOCC1 [Example 156, 2-(4-(4-(ethyl(tetrahydro-2H-pyran-4-yl)amino)-3-((6-methoxypyridin-3-yl)amino)phenyl)tetrahydro-2H-pyran-4-yl)acetic acid] | > 0.05 µM
CCN(c1ccc(C(C)(C)CC(=O)O)cc1Nc1ccc(C#N)cc1)C1CCC(C)(O)CC1 (centres unmarked) [Example 4, 3-(3-((4-cyanophenyl)amino)-4-(ethyl(4-hydroxy-4-methylcyclohexyl)amino)phenyl)-3-methylbutanoic acid] | < 0.05 µM
CCN(c1ccc([C@@H](COC)CC(=O)O)cc1Nc1ncc(F)cc1F)C1CCOCC1 (single isomer, unassigned) [Example 358] | < 0.05 µM
CCN(c1ccc([C@@H](COC)CC(=O)O)cc1Nc1ccc(C#N)c(C(F)(F)F)c1)C1CCOCC1 (single isomer, unassigned) [Example 383] | > 0.05 µM
CCC(CC(=O)O)c1cc(F)c(N(CC)C2CCOCC2)c(Nc2ccc(Cl)cc2)c1 (single isomer, unassigned) [Example 133, 3-(3-((4-Chlorophenyl)amino)-4-(ethyl(tetrahydro-2H-pyran-4-yl)amino)-5-fluorophenyl)pentanoic acid] | < 0.005 µM
CCC(CC(=O)O)c1ccc(N(CC)C2CCCOC2)c(Nc2ccc(C#N)cc2)c1 (single isomer, unassigned) [Example 61, 3-(3-((4-cyanophenyl)amino)-4-(ethyl(tetrahydro-2H-pyran-3-yl)amino)phenyl)pentanoic acid] | < 0.005 µM
CCN(c1ccc(C(C)(C)CC(=O)O)cc1Nc1ccc(C#N)cc1)C1CCS(=O)(=O)CC1 [Example 178, 3-(3-((4-cyanophenyl)amino)-4-((1,1-dioxidotetrahydro-2H-thiopyran-4-yl)(ethyl)amino)phenyl)-3-melhylbutanoic acid] | < 0.05 µM
CC[C@@H](CC(=O)O)c1ccc(N(CC)C2CCOCC2)c(Nc2ccc(OC)cn2)c1 (single isomer, unassigned) [Example 462] | < 0.005 µM
CCC(CC(=O)O)c1ccc(N(CC)C2CCCOC2)c(Nc2cnc(OC)nc2)c1 (single isomer, unassigned) [Example 65, 3-(4-(ethyl(tetrahydro-2H-pyran-3-yl)amino)-3-((2-methoxypyrimidin-5-yl)amino)phenyl)pentanoic acid] | < 0.005 µM
CC[C@@H](CC(=O)O)c1ccc(N(CC2CC2)CC(C)(C)O)c(Nc2ccc(Cl)cc2)c1 (single isomer, unassigned) [Example 267] | < 0.005 µM
CCC(CC(=O)O)c1ccc(N(CC)C2CCS(=O)(=O)CC2)c(Nc2ccc(C#N)cc2)c1 (single isomer, unassigned) [Example 335, 3-(3-((4-cyanophenyl)amino)-4-((1,1-dioxidotetrahydro-2H-thiopyran-4-yl)(ethyl)amino)phenyl) pentanoic acid] | < 0.05 µM

Other lines, results leading:

IC50 | SMILES
> 0.05 µM | CCN(c1c(F)cc(C(COC)CC(=O)O)cc1NC(=O)Nc1ccc(Cl)cc1F)C1CCOCC1 (single isomer, unassigned) [Example 919, 3-(3-(3-(4-Chloro-2-fluorophenyl)ureido)-4-(ethyl(tetrahydro-2H-pyran-4-yl)amino)-5-fluorophenyl)-4-methoxybutanoic acid]
< 0.05 µM | CCCN(c1ccc([C@@H](COC)CC(=O)O)cc1NC(=O)Nc1ccc(C#N)cc1)C1CCOCC1 (single isomer, unassigned) [Example 567]
> 0.05 µM | COCC(CC(=O)O)c1ccc(N2CCOC(C)(C)C2)c(Nc2ccc(Cl)cc2)c1 (single isomer, unassigned) [Example 1315 E1, 3-(3-((4-Chlorophenyl)amino)-4-(2,2-dimethylmorpholino)phenyl)-4-methoxybutanoic acid]
< 0.005 µM | CCC(CC(=O)O)c1ccc(N2CCOC[C@H]2C(C)C)c(Nc2ccc(Cl)cc2)c1 (single isomer, unassigned) [Example 888]
< 0.005 µM | COCC(CC(=O)O)c1ccc(N2CCC(c3ccccc3)CC2)c(Nc2ccc(C#N)cc2)c1 (single isomer, unassigned) [Example 1350 E1, 3-(3-((4-Cyanophenyl)amino)-4-(4-phenylpiperidin-1-yl)phenyl)-4-methoxybutanoic acid]
< 0.005 µM | CCN(c1ccc(C(C)CC(=O)O)cc1Nc1ccc2c(c1)OC(F)(F)O2)C1CCOCC1 (single isomer, unassigned) [Example 628, 3-(3-((2,2-difluorobenzo[d] [1,3]dioxol-5-yl)amino)-4-(ethyl(tetrahydro-2H-pyran-4-yl)amino)phenyl)butanoic acid]
< 0.05 µM | CCc1ccc(Nc2cc(C(COC)CC(=O)O)cc(F)c2N(CC(C)C)CC(C)C)cc1 (single isomer, unassigned) [Example 922, 3-(4-(diisobutylamino)-3-((4-ethylphenyl)amino)-5-fluorophenyl)-4-methoxybutanoic acid]
< 0.005 µM | CCN(c1ccc([C@@H](CC(=O)O)C(F)(F)F)cc1Nc1cnc(OC)nc1)C1CCOCC1 (single isomer, unassigned) [Example 601]
< 0.05 µM | COCC(CC(=O)O)c1ccc(N2CCC(c3ccccc3)CC2)c(NC(=O)Nc2ccc(Cl)cc2F)c1 (single isomer, unassigned) [Example 1357 E2, 3-(3-(3-(4-Chloro-2-fluorophenyl)ureido)-4-(4-phenylpiperidin-1-yl)phenyl)-4-methoxybutanoic acid]
> 0.05 µM | CCC(CC(=O)O)c1ccc(N(C)C2CCOCC2)c(Nc2cnc(OC)nc2)c1 (single isomer, unassigned) [Example 871, 3-(3-((2-methoxy-pyrimidin-5-yl)amino)-4-(methyl(tetra-hydro-2H-pyran-4-yl)amino)phenyl) pentanoic acid]
> 0.05 µM | CCOc1ncc(Nc2cc([C@@H](CC)CC(C)(C)O)ccc2N(CC)C2CCOCC2)cn1 (single isomer, unassigned) [Example 1345]
< 0.005 µM | CCCN(c1ccc([C@H](COC)CC(=O)O)cc1Nc1ccc(C#N)cc1)C1CCOCC1 (single isomer, unassigned) [Example 568]
> 0.05 µM | COCC(CC(=O)O)c1ccc(N2CCOC(C)C2)c(NC(=O)Nc2ccc(Cl)cc2F)c1 (single isomer, unassigned) [Example 1314 D1, 3-(3-(3-(4-Chloro-2-fluorophenyl)ureido)-4-(2-methylmorpholino)phenyl)-4-methoxybutanoic acid]
< 0.005 µM | CCC(CC(=O)O)c1cnc(N(CC)C2CCOCC2)c(Nc2ccc(C#N)cc2)c1 (racemic) [Example 1379]
> 0.05 µM | CCOc1ccc(Nc2cc(C(C)CC(=O)O)ccc2N(CC)C2CCOCC2)nn1 (single isomer, unassigned) [Example 624, 3-(3-((6-ethoxypyridazin-3-yl)amino)-4-(ethyl (tetrahydro-2H-pyran-4-yl)amino)phenyl)butanoic acid]
< 0.005 µM | CCOc1cnc(Nc2cc([C@@H](CC)CC(=O)O)ccc2N(CC)C2CCOCC2)cn1 (single isomer, unassigned) [Example 465]
< 0.05 µM | CCN(c1ccc([C@@H](CC(=O)O)C(F)(F)F)cc1NC(=O)Nc1ccc(C)cc1)C1CCOCC1 (single isomer, unassigned) [Example 1272]
< 0.005 µM | CCCN(c1ccc([C@H](CC)CC(=O)O)cc1Nc1ccc2c(c1)OC(F)(F)O2)C1CCOCC1 (single isomer, unassigned) [Example 550]
< 0.05 µM | CCOc1ncc(Nc2cc([C@H](CC)Cc3ncno3)ccc2N(CC)C2CCOCC2)cn1 [Example 1337, (R)-4-(1-(1,2,4-Oxadiazol-5-yl)butan-2-yl)-N2-(2-ethoxypyrimidin-5-yl)-N1-ethyl-N1-(tetrahydro-2H-pyran-4-yl)benzene-1,2-diamine]
> 0.05 µM | CCC1COCCN1c1ccc([C@H](COC)CC(=O)O)cc1Nc1ccc(F)cn1 (single isomer, unassigned) [Example 1294]
< 0.05 µM | CCCN(c1ccc([C@H](COC)CC(=O)O)cc1NC(=O)Nc1ccc(Cl)cc1F)C1CCOCC1 (single isomer, unassigned) [Example 576]
< 0.05 µM | CCCN(c1ccc(C(CC)CC(=O)O)cc1NC(=O)Nc1ccc(C)cc1)C1CCOCC1 (single isomer, unassigned) [Example 557 Enantiomer 1, 3-(4-(Propyl(tetrahydro-2H-pyran-4-yl)amino)-3-(3-(p-tolyl)ureido)phenyl)pentanoic acid]

Reference: patent US9790169B2, “IDO inhibitors” (BRISTOL-MYERS SQUIBB COMPANY, priority 2015, dated 2017)
